{
  "source": "patent US20120100204A1",
  "about": "“TGF-Beta Stimulating Agent Compositions and Combinations” (TCP INNOVATIONS LTD, priority 2007, published 2012)",
  "key": {"[1]": {"system": "tgfb3 mRNA", "experiment": "tgfb3 mRNA level by quantitative PCR in human aortic vascular smooth muscle cells", "type": "cell-based", "settings": "24 hrs", "description": "(1995) Cardiovasc. Res. 29:848-55). […] The cells were then incubated for either 24 hrs or 72 hrs depending on the experiment. All treatment conditions were established in triplicate. The level of mRNA for tgfb1, tgfb2 and tgfb3 were estimated by quantitative PCR. The media was removed and RNA was carefully prepared using the Ambion RNAqueous4PCR kit (Ambion#1914) in accordance with the manufacturer's instructions. The purity of the RNA and the quantity was assessed spectrophotometrically. […] This analysis results in both a gel-like image as well as electrophoretic data. Indications of RNA degradation are: (a) decreasing ratio of ribosomal bands (b) additional peaks bellow the ribosomal bands (c) Decrease in overall RNA signal (d) shift towards shorter fragments. […] Next, the RNA was converted to cDNA using the ABI High-Capacity cDNA Archive Kit, in accordance with manufacturer's instructions. […] Samples were vortexed to ensure thorough mixing. cDNA was aliquoted into ABI 384 well plates using a multi-channel pipette, 4.5 μl of sample into each well. Samples were assayed in triplicate (that is, nine determinations in total were made for each condition, being three separate assays on each of three replicate culture wells). The assay mix and Universal Master Mix were prepared and aliquoted across the 384 well plates 5.5 μl in each well, using a single channel pipette. […] Universal Master Mix=5 μl; cDNA=4.5 μl. The plates were then heat sealed using Abgene clear seal strong plastic heat seals, and then cycled and scanned using the ABI 9700HT under the following conditions: 95° C. for 10 minutes to activate the AmpliTaq GOLD, then 40 cycles of: 95° C. for 15 sec (Denaturation), 60° C. for 60 […]). […] Quantitative PCR was performed using several primer/probe sets. […] We used both commercially available primer/probe sets (ABI Taqman pre-validated assays), using both available sets in the ABI database for tgfb1 and tgfb2, as well as the single available set for tgfb3. In addition, we used our own manual design probe/primer set for each of tgfb1, tgfb2 and tgfb3. […] In all quantitative PCR experiments, several additional controls were included: firstly, a control for each sample is run with no reverse transcription to ensure the mRNA sample is not contaminated with genomic DNA (although the manual design probe/primer sets were all selected to cross an exon/exon boundary, ensuring no detectable amplicon is produced from genomic DNA templates). […] Failure of either control led to the repeat of the entire experiment."}, "[2]": {"system": "TGF-beta1", "experiment": "TGF-beta1 protein in the blood vessel wall, quantitative immunofluoresence", "type": "in vivo", "settings": "apoE mice; for TGF-b1 staining: Aspirin 30 mg/kg/day, mean ± SD", "source_text": "(§1) Adult male apoE-deficient mice, back-crossed onto a C57B16 background for at least five generations, were randomised into groups of eight animals at 12 weeks of age, such that each group had similar average body weight. […] The amount of food eaten and the body weight of each mouse was monitored daily for the first week, and once per week thereafter. After 12 weeks of treatment, the mice were sacrificed by CO2 asphyxiation, and heart & lung blocks were excised, embedded in Cryo-M-bed (Bright Instruments, UK) without fixation and snap frozen in liquid nitrogen.\n(§2) Sections were then prepared from the aortic root according to the Paigen Strategy (a defined sequence of cutting sections which allow reproducible comparison between animals; see for example Grainger et al. (1995) Nature Med. 1:1067-72 and the references therein). 4 μm crysosections were cut using a motordriven cryotome (Bright Instruments) and collected onto poly-L-lysine coated glass microscope slides, then fixed in ice-cold acetone for 90 secs, allowed to air dry and stored at −20° C. until analysed."}, "[3]": {"system": "apoE-deficient mice", "experiment": "vascular lipid lesion formation at the aortic root, Oil Red O staining", "type": "in vivo", "settings": "for Intimal lipid lesion area / Intimal:media area ratio / Lipid lesion area / Total intimal area: Aspirin 30 mg/kg/day, mean ± SD; for reduction of vascular lipid lesion area: Tamoxifen 1 mg/kg/day p.o, vs control", "source_text": "as §1, §2\nThe extent of vascular lipid lesion formation was assessed by Oil Red O staining, with a Fast Green counterstain, a standard histological procedure well known in the art. Briefly, five sections (selected according to the Paigen strategy) from each animal were passed through graded alcohol solutions, then stained in Oil Red O for 12 minutes, washed several times and then counterstained by dipping in Fast Green for 5-10 secs, and then dip washed in several changes of clean water. After air drying, an appropriate mountant was applied (simple glycerol-based moutants are most appropriate for this task), followed by a coverslip using acrylic varnish surrounding the coverslip to hold it in place. Slides were then analysed using a simple inverted microscope (no phase contrast; 10× objective; Olympus AX series), fitted with a digital camera to capture images of the entire aortic wall. The images were subsequently processed, blind to the treatment status of the animal, using Openlab image analysis software (Improvision, UK) running on an Apple Macintosh computer. On each image, the user delineated the external elastic lamina, internal elastic lamina and the luminal surface of the vessel wall, and the software reported the total intimal area, the intimal:medial area ratio, the total neutral lipid area and the intimal lipid area. The values from each image were summed (except for intimal:media area ratio, which were averaged), and then the values from each slide were summed (or averaged, as above) to yield a value for each parameter for each animal. […]\n(§3) Adult male apoE-deficient mice were treated, in groups of 8, with fish oil (Seven Seas, UK), aspirin or both agents simultaneously from 12 weeks of age until 24 weeks of age, exactly as described in Example 2.\nMice were sacrificed and heart & lung blocks prepared and processed exactly as described in Example 2. Sections were prepared in accordance with the Paigen Strategy, as in example 2. The extent of lipid lesion formation was assessed by Oil Red 0 staining with Fast Green counterstain, exactly as in example 2."}, "[4]": {"system": "fibrin(ogen)", "experiment": "fibrin(ogen) deposition into the blood vessel wall, quantitative immunofluoresence", "source_text": "as §1, §2\nThe level of fibrin or fibrinogen deposited into the vessel wall was also estimated by quantitative immunofluoresence, using a method identical to that for TGF-beta1, except that the primary antibody was sheep anti-fibrin(ogen) (Chemicon; 2 μg/ml) and the secondary antibody was donkey anti-sheep IgG minimum cross-reactivity, FITC labelled (Jackson Immunoresearch), as previously described (Thromb Res. 2001 Apr. 1; 102(1):71-80).\nas §3\nThe levels of TGF-beta1 and fibrin(ogen) in the vessel wall were determined by quantitative immunofluoresence, exactly as described in example 2."}, "[5]": {"settings": "12 to 24 weeks of age, Fish oils 100 mg/kg/day"}, "[6]": {"settings": "12 weeks in chow, TMX 1 mg/kg/day"}},
  "data": [
    {"smiles": "CC(=O)Oc1ccccc1C(=O)O", "note": "[Aspirin, acetylsalicylic acid]", "values": [
      {"measurement": "Level of mRNA, estimated by qPCR: tgfb3", "setting": "[1]; 10 μM A", "value": "1.09 ± 0.08", "unit": "fold-change"},
      {"measurement": "Level of mRNA, estimated by qPCR: tgfb3", "setting": "[1]; 33 μM A", "value": "1.06 ± 0.13", "unit": "fold-change"},
      {"measurement": "Level of mRNA, estimated by qPCR: tgfb3", "setting": "[1]; 100 μM A", "value": "0.94 ± 0.09", "unit": "fold-change"},
      {"measurement": "TGF-b1 staining", "setting": "[2]; 12 weeks, TMX 1 mg/kg/day", "value": "65 ± 11", "unit": "AU"},
      {"measurement": "level of TGF-beta1 in the blood vessel wall (in words)", "setting": "[2]; Example 2", "value": "no effect"},
      {"measurement": "level of TGF-beta1 in the blood vessel wall (in words)", "setting": "[2]; Example 3", "value": "no effect"},
      {"measurement": "TGF-b1 staining", "setting": "[2]; Fish oils 100 mg/kg/day", "value": "65 ± 11", "unit": "AU"},
      {"measurement": "Intimal lipid lesion area", "setting": "[3]; [5]", "value": "31,006 ± 7,176 μm2"},
      {"measurement": "Intimal:media area ratio", "setting": "[3]; [5]", "value": "62 ± 9", "unit": "%"},
      {"measurement": "Lipid lesion area", "setting": "[3]; [5]", "value": "35,860 ± 8,091 μm2"},
      {"measurement": "Total intimal area", "setting": "[3]; [5]", "value": "65,209 ± 6.712 μm2"},
      {"measurement": "Intimal lipid lesion area", "setting": "[3]; [6]", "value": "31,006 ± 7,176 μm^2"},
      {"measurement": "Intimal:media area ratio", "setting": "[3]; [6]", "value": "62 ± 9", "unit": "%"},
      {"measurement": "Lipid lesion area", "setting": "[3]; [6]", "value": "35,860 ± 8,091 μm^2"},
      {"measurement": "Total intimal area", "setting": "[3]; [6]", "value": "65,209 ± 6,712 μm^2"},
      {"measurement": "effect on total intimal area and intimal:medial area ratio", "setting": "[3]; Example 2", "value": "did not affect"},
      {"measurement": "reduction of vascular lipid lesion area", "setting": "[3]; aspirin 30 mg/kg/day p.o", "value": 6, "unit": "%"},
      {"measurement": "effect on any measure of vascular lipid lesion area or plaque size", "setting": "[3]; administered separately, fish oil 100 mg/kg/day p.o, aspirin 30 mg/kg/day p.o", "value": "no statistically significant effect"},
      {"measurement": "effect on fibrin(ogen) deposition into the blood vessel wall (in words)", "setting": "[4]; mouse, in vivo", "value": "significantly reduced"}
    ]},
    {"smiles": "CC/C(=C(\\c1ccccc1)c1ccc(OCCN(C)C)cc1)c1ccccc1", "note": "[Tamoxifen]", "values": [
      {"measurement": "Level of mRNA, estimated by qPCR: tgfb3", "setting": "[1]; 3.3 μM T", "value": "0.92 ± 0.16", "unit": "fold-change"},
      {"measurement": "Level of mRNA, estimated by qPCR: tgfb3", "setting": "[1]; 10 μM T", "value": "1.19 ± 0.21", "unit": "fold-change"},
      {"measurement": "Level of mRNA, estimated by qPCR: tgfb3", "setting": "[1]; 33 μM T", "value": "1.31 ± 0.11", "unit": "fold-change"},
      {"measurement": "doses that significantly increased tgfb3 mRNA", "setting": "[1]", "value": "≥ 10", "unit": "µM"},
      {"measurement": "TGF-b1 staining", "setting": "[2]; 12 weeks, TMX 1 mg/kg/day", "value": "94 ± 9", "unit": "AU"},
      {"measurement": "level of TGF-beta1 in the blood vessel wall (in words)", "setting": "[2]; Example 2", "value": "increased"},
      {"measurement": "Intimal lipid lesion area", "setting": "[3]; [6]", "value": "9,393 ± 2,221 * μm^2"},
      {"measurement": "Lipid lesion area", "setting": "[3]; [6]", "value": "10,794 ± 2,820 * μm^2"},
      {"measurement": "Total intimal area", "setting": "[3]; [6]", "value": "64,428 ± 4,294 μm^2"},
      {"measurement": "reduction of vascular lipid lesion area", "setting": "[3]; aspirin 30 mg/kg/day p.o", "value": 72, "unit": "%"},
      {"measurement": "Fibrin(ogen) staining", "setting": "[4]; apoE mice, 12 weeks, TMX 1 mg/kg/day, Aspirin 30 mg/kg/day, mean ± SD", "value": "151 ± 7", "unit": "AU"},
      {"measurement": "increase of fibrin(ogen) deposition into the vessel wall", "setting": "[4]; apoE mice, Tamoxifen 1 mg/kg/day, vs control", "value": 23, "unit": "%"}
    ]}
  ]
}
